Measurements reported in patent publication US20240156093A1 (priority 2021, published 2024).
≈ marks a conversion by molar mass, not a printed value.

What was measured:
physchem [1] = conditions: 25 °C, water
physchem [2] = assay: physchem
[3] = test system: feline calicivirus (non-enveloped virus); format: cell-based
[4] = test system: influenza virus (enveloped virus); format: cell-based

Structure (SMILES)	solubility (physchem [1]) [µg/mL]	pKa (physchem [2])	also measured
Nc1ccc(C(=O)O)cc1 [4-aminobenzoic acid]	6000 (≈ 43.8 mM)		
O=C(O)CCCCC(=O)O [Adipic acid, adipic acid]		4.34	
CCCCCCCCCCCCc1ccc(S(=O)(=O)[O-])cc1.[Na+] [Comparative example 2, sodium dodecylbenzene sulfonate]			Feline calicivirus: Antiviral activity value [3]: 0.3; Feline calicivirus: Virus infectivity titer common logarithmic value [3]: 6.2 PFU/cm^2; Influenza virus: Antiviral activity value [4]: 2.0; Influenza virus: Virus infectivity titer common logarithmic value [4]: 4.5 PFU/cm^2
O=C(O)CCCCC(=O)O [Comparative example 3, adipic acid]			Feline calicivirus: Antiviral activity value [3]: 0.5; Feline calicivirus: Virus infectivity titer common logarithmic value [3]: 6 PFU/cm^2; Influenza virus: Antiviral activity value [4]: 1.7
O=C(O)/C=C/C(=O)O [Fumaric acid, fumaric acid]	6300 (≈ 54.3 mM)	3.02	
CCCCCCCCCCCC(=O)O [Lauric acid, lauric acid]	4.8 (≈ 0.024 mM)	4.92	
CCCCCCCC/C=C\CCCCCCCC(=O)O [Oleic acid, oleic acid]		5.35	
O=C(O)c1ccccc1C(=O)O [Phthalic acid, phthalic acid]	7200 (≈ 43.3 mM)	2.94	
O=C(O)c1ccccc1O [Salicylic acid, salicylic acid]	2000 (≈ 14.5 mM)		
CCCCCC(=O)O [caproic acid]	11000 (≈ 94.7 mM)		
CCCCCCC(=O)O [enanthic acid]	2400 (≈ 18.4 mM)		
O=C(O)c1cccc(C(=O)O)c1 [isophthalic acid]	130 (≈ 0.783 mM)		
CCCCCCCCC(=O)O [pelargonic acid]	280 (≈ 1.77 mM)		
O=C(O)c1ccc(C(=O)O)cc1 [terephthalic acid]	17 (≈ 0.102 mM)		
